ChEMBL document CHEMBL1201862, “PubChem BioAssay data set” (2004)
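In this assay, cells in 96-well plates receive the compound at five concentrations for 48 hours. Endpoints are linearly interpolated between the surrounding concentrations. Abbreviation: GI50, concentration required for 50% inhibition of growth.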 Calls of active or inactive are those of the source. Rule as the data show it: active = GI50 up to about 1.1 µM and inactive = higher.

Assays:
Experiment in all cases: inhibition of tumour cell growth, NCI panel, 48 h
UACC-62 = test system: UACC-62
A549 = test system: A549
RXF 393 = test system: RXF 393
EKVX = test system: EKVX
A498 = test system: A498
UO-31 = test system: UO-31
OVCAR-3 = test system: OVCAR-3
LOX IMVI = test system: LOX IMVI
SNB-19 = test system: SNB-19
KM12 = test system: KM12
SK-MEL-5 = test system: SK-MEL-5
NCI-H522 = test system: NCI-H522
NCI-H226 = test system: NCI-H226
SW-620 = test system: SW-620
HT-29 = test system: HT-29
U-251 = test system: U-251
SF-539 = test system: SF-539
OVCAR-4 = test system: OVCAR-4
SF-268 = test system: SF-268
TK-10 = test system: TK-10

Measured: GI50

O=C(NN1C(=O)CSC1c1ccc(C(F)(F)F)cc1)c1ccncc1 (centres undefined)
inactive: UACC-62 > 100 µM | A549 > 100 µM | RXF 393 97.3 µM | EKVX > 100 µM | A498 > 31.6 µM | UO-31 > 100 µM | OVCAR-3 > 100 µM | LOX IMVI > 100 µM | SNB-19 > 100 µM | KM12 > 100 µM | SK-MEL-5 > 100 µM | NCI-H522 > 100 µM | NCI-H226 > 100 µM | SW-620 > 100 µM | HT-29 > 100 µM | U-251 > 100 µM | SF-539 > 100 µM | OVCAR-4 > 100 µM | SF-268 > 100 µM

O=c1oc2ccccc2n1P(=O)(Oc1ccc(Cl)cc1)n1c(=O)oc2ccccc21
inactive: UACC-62 61 µM | A549 > 100 µM | RXF 393 > 100 µM | EKVX > 100 µM | A498 > 100 µM | UO-31 > 100 µM | OVCAR-3 > 100 µM | LOX IMVI > 100 µM | SNB-19 > 100 µM | KM12 85.5 µM | SK-MEL-5 > 100 µM | NCI-H522 > 100 µM | NCI-H226 > 100 µM | SW-620 > 100 µM | HT-29 > 100 µM | U-251 > 100 µM | SF-539 > 100 µM | OVCAR-4 > 100 µM | SF-268 > 100 µM | TK-10 > 100 µM

CCCCCCCCCCCCCCCc1nnc(S)[nH]1
inactive: UACC-62 97.9 µM | RXF 393 > 100 µM | EKVX > 100 µM | A498 > 100 µM | UO-31 24 µM | OVCAR-3 > 100 µM | LOX IMVI > 100 µM | SNB-19 > 100 µM | KM12 > 100 µM | NCI-H522 19.6 µM | HT-29 > 100 µM | U-251 > 100 µM | SF-539 > 100 µM | OVCAR-4 46.1 µM | SF-268 > 100 µM | TK-10 > 100 µM

CCOC(=O)CCc1c(C)c2c(O)cc(O)cc2oc1=O
inactive: UACC-62 > 100 µM | A549 > 100 µM | RXF 393 > 78.9 µM | EKVX > 100 µM | A498 > 100 µM | UO-31 > 87.1 µM | OVCAR-3 > 100 µM | LOX IMVI > 100 µM | SNB-19 > 84.1 µM | KM12 > 100 µM | SK-MEL-5 > 100 µM | NCI-H522 > 100 µM | NCI-H226 > 87.9 µM | SW-620 > 100 µM | HT-29 > 100 µM | U-251 53.8 µM | SF-539 > 100 µM | OVCAR-4 > 100 µM | SF-268 > 100 µM

CC1=C(SCCO)C(=O)c2ccccc2C1=O
inactive: UACC-62 14.9 µM | A549 15.9 µM | RXF 393 13.4 µM | EKVX 8.41 µM | A498 16.9 µM | UO-31 8.63 µM | OVCAR-3 2.82 µM | LOX IMVI 12.1 µM | SNB-19 25.4 µM | KM12 13.6 µM | SK-MEL-5 13.3 µM | NCI-H522 3.72 µM | NCI-H226 14.7 µM | SW-620 12.2 µM | HT-29 19.3 µM | U-251 13.3 µM | SF-539 12.1 µM | OVCAR-4 3.31 µM | SF-268 15.5 µM | TK-10 16.8 µM
